According to the Kinase Knowledgebase extract (Sharma et al. 2016):

Target: CDK2 (human) (UniProt P24941)
Test: Enzyme Assay

| Structure (SMILES) | IC50 [µM] |
| --- | --- |
| c1cncc(CCNc2cc(-c3cn[nH]c3C3CCCC3)ccn2)c1 | < 5 |
| Cc1cc(C)n(CCNc2nccc(-c3c[nH]nc3C(C)C)n2)n1 | < 15 |
| Cc1n[nH]cc1-c1ccnc(NC2CCCCCC2)n1 | < 5 |
| CC(C)c1[nH]ncc1-c1ccnc(NCCCn2ccnc2)c1 | < 1 |
| CCC(C)Nc1nccc(-c2c[nH]nc2C(C)C)n1 (stereo not drawn) | < 0.5 |
| CC(C)c1[nH]ncc1-c1ccnc(NCc2ccc(F)cc2)c1 | < 5 |
| CC(C)c1[nH]ncc1-c1ccnc(NC2CCCCC2)c1 | < 0.5 |
| CC(C)c1n[nH]cc1-c1ccnc(NCc2ccc(N(C)C)cc2)n1 | < 5 |
| CC(C)c1[nH]ncc1-c1ccnc(NCc2ccc3c(c2)OCO3)c1 | < 5 |
| Cc1cccc(CNc2cc(-c3cn[nH]c3C3CCCC3)ccn2)c1 | < 5 |
| CC(C)c1n[nH]cc1-c1ccnc(NC2CC(C)(C)c3ccccc32)n1 (stereo not drawn) | < 5 |
| Cc1ccccc1CNc1cc(-c2cn[nH]c2C2CCCC2)ccn1 | < 5 |
| Cc1n[nH]cc1-c1ccnc(NCC2CCCCC2)n1 | < 10 |
| Cc1n[nH]cc1-c1ccnc(NCC(C)C)n1 | < 5 |
| COCCCNc1cc(-c2cn[nH]c2C(C)C)ccn1 | < 5 |
| CC(C)c1n[nH]cc1-c1ccnc(NC(C)c2ccccn2)n1 (stereo not drawn) | < 10 |
| Cc1n[nH]cc1-c1ccnc(NCCC#N)n1 | < 15 |
| Cc1n[nH]cc1-c1ccnc(NCCOc2ccccc2)n1 | < 15 |
